Data taken from patent US20230382940A1, “ANTIVIRAL COMPOUNDS AND METHODS OF MAKING AND USING THE SAME” (Gilead Sciences, Inc., priority 2022, published 2023).

Assays:
Type in all cases: cell-based
[1] = test system: Respiratory syncytial virus recombinant with luciferase (RSV-Luc5); experiment: HEp-2 RSV-Luc5 384-well assay (EC50 RSVFLUC Hep2-384 v2), Example V; details: human respiratory syncytial virus, HEp-2, 72 h, read-out: EC50 RSV FLuc Hep-2 384 V2 (per Ex. V)
Excerpt: Example V: HEp-2 RSV-Luc5 384-Well Assay (EC50 RSVFLUC Hep2-384 v2)
HEp-2 cell line was purchased from ATCC (Manassas, VA Cat #CCL-23) and maintained in Dulbecco's […] (DMEM) (Corning, New York, NY, Cat #15-018CM) supplemented with 10% fetal bovine serum (FBS) (Hyclone, Logan, UT, Cat #SH30071-03) and 1× Penicillin-Streptomycin-L-Glutamine (Corning, New York, NY, Cat #30-009-C1). Cells were passaged 2 times per week to maintain sub-confluent densities and were used for experiments at passage 5-20. Respiratory syncytial virus recombinant with luciferase (RSV-Luc5) (≥1×107 TCID50/ml) was purchased from Microbiologics (Saint Cloud, MN). Viral replication was determined in HEp-2 cells in the following manner.
(§1) Compounds are prepared in 100% DMSO in 384-well polypropylene plates (Greiner, Monroe, NC, Cat #784201) with 8 compounds per plate in grouped replicates of 4 at 10 serially diluted concentrations (1:3). The serially diluted compounds were transferred to low dead volume Echo plates (Labcyte, Sunnyvale, CA, Cat #LP-0200).
The test compounds were spotted to 384-well assay plates (Greiner, Monroe, NC, Cat #781091) at 200 nL per well. HEp-2 cells were harvested and suspended in DMEM (supplemented with 10% FBS and 1× Penicillin-Streptomycin-L-Glutamine) and seeded to the pre-spotted assay plates at 4,000 cells per well in 30 μL. RSV-Luc5 viruses were diluted in DMEM (supplemented with 10% FBS and 1× Penicillin-Streptomycin-L-(Glutamine) at 200,000 Infectious Units (IU) per mL and 10 μL per well was added to the assay plates containing cells and compounds, for an MOI=0.5. The assay plates were incubated for 3 days at 37° C. and 5% CO2. At the end of incubation, One-Glo reagent (Promega, Madison, WI, Cat #E6120) was prepared. The assay plates and One-Glo reagent were equilibrated to room temperature for at least 15 minutes. 40 μL per well of One-Glo reagent was added and the plates were incubated at room temp for 15 minutes before reading the luminescence signal on an EnVision multimode plate reader (Perkin Elmer, Waltham, MA). Remdesivir was used as positive control and DMSO was used as negative control. Values were normalized to the positive and negative controls (as 0% and 100% replication, respectively) and data was fitted using non-linear regression analysis by Gilead's dose response tool. The EC50 value for each compound was then determined as the concentration reducing the viral replication by 50%.

[2] = test system: Human Rhinovirus 16 (HRV16); experiment: H1-HeLa HRV-CTG 384-well assay, HRV16, Example X; details: Rhinovirus A, 96 h; H1-HeLa cells, HRV16 MOI 0.25, 4 days, Celltiter-Glo; read-out: EC50 H1-HeLa_HRV 16_HRV-CTG 384-well Assay (per Ex. X)
Excerpt: (§2) Example X: H1-HeLa HRV-CTG 384-Well Assay
(§3) H1-Hela cell line (ATCC, Manassas, VA, Cat #CRL-1958) was maintained in Dulbecco's […] (DMEM) (Corning, New York, NY, Cat #15-018CM) supplemented with 10% fetal bovine serum (FBS) (Hyclone, Logan, UT, Cat #SH30071-03), and 1× Penicillin-Streptomycin-L-Glutamine (Corning, New York, NY, Cat #30-009-CI). Cells were passaged 2 times per week to maintain sub-confluent densities and were used for experiments at passage 5-30. The Human Rhinovirus 1B (HRV1B) (ATCC, Manassas, VA, Cat #VR-1645), Human Rhinovirus 14 (HRV14) (ATCC, Manassas, VA, Cat #VR-284), and Human Rhinovirus 16 (HRV16) (ATCC, Manassas, VA, Cat #BR-283) was obtained through ATCC. Viral infection was monitored by determining viability of H1-HeLa cells as described below.
as §1, with “Test molecules” for “Compounds”
(§4) The test compounds were spotted to 384-well assay plates (Greiner, Monroe, NC, Cat #781091) at 200 nL per well using an Echo acoustic dispenser (Labcyte, Sunnyvale, CA). H1-HeLa cells were harvested and suspended in DMEM (supplemented with 2% FBS and 1× Penicillin-Streptomycin-L-Glutamine) and seeded to the pre-spotted assay plates at 5,000 cells per well in 30 μL. HRV1B, HRV14, and HRV16 was diluted in DMEM (supplemented with 2% FBS and 1× Penicillin-Streptomycin-L-Glutamine) at 97.1 million Infectious Units (IU) per mL, 151 million IU per mL and 221 million IU per mL respectively. 10 μL of virus per well was added to the assay plates containing cells and compounds, for an MOI of 0.5, 1.0, and 0.25 respectively. The assay plates were incubated for 4 days at 37° C. and 5% CO2. At the end of incubation, Celltiter-Glo (Promega, Madison, WI, Cat #G7573) was prepared. The assay plates and Celltiter-Glo reagent were equilibrated to room temperature for at least 15 minutes. 40 μL per well of Celltiter-Glo reagent was added and the plates were incubated at room temperature for 15 minutes before reading the luminescence signal on an EnVision multimode plate reader (Perkin Elmer, Waltham, MA). Rupintrivir was used as positive control and DMSO was used as negative control. Values were normalized to the positive and negative controls (as 0% and 100% replication, respectively) and data was fitted using non-linear regression analysis by Gilead's dose response tool. The EC50 value for each compound was defined as the concentration reducing viral replication by 50%.

[3] = test system: Human Rhinovirus 14 (HRV14); experiment: H1-HeLa HRV-CTG 384-well assay, HRV14, Example X; details: Rhinovirus B, 96 h; H1-HeLa cells, HRV14 MOI 1.0, 4 days, Celltiter-Glo; read-out: EC50 H1-HeLa_HRV 14_HRV-CTG 384-well Assay (per Ex. X)
Excerpt: as §2, §3
as §1, with “Test molecules” for “Compounds”
as §4

[4] = test system: Human Rhinovirus 1B (HRV1B); experiment: H1-HeLa HRV-CTG 384-well assay, HRV1B, Example X; details: Rhinovirus A, 96 h; H1-HeLa cells, HRV1B MOI 0.5, 4 days, Celltiter-Glo; read-out: EC50 H1-HeLa_HRV 1B_HRV-CTG 384-well Assay (per Ex. X)
Excerpt: as §2, §3
as §1, with “Test molecules” for “Compounds”
as §4

[5] = test system: Respiratory syncytial virus recombinant with luciferase (RSV-Luc5); experiment: NHBE RSV-Luc5 384-well assay (EC50 RSVFLUC NHBE-384 v2), Example W; details: human respiratory syncytial virus, 72 h, read-out: EC50 RSV FLUC NHBE 384 V2 (per Ex. W)
Excerpt: Example W: NHBE RSV-Luc5 384-Well Assay (EC50 RSVFLUC NHBE-384 v2)
Normal Human Bronchial Epithelial (NHBE) cells were purchased from Lonza (Walkersville, MD Cat #CC2540) and maintained in BEGM Bronchial Epithelial Cell Growth Medium BulletKit (Lonza CC-3170).
Cells were thawed, expanded, and were used for experiments at passage 2. Respiratory syncytial virus recombinant with luciferase (RSV-Luc5) (≥1×10^7 Infectious Units/mL (IU/mL) determined by TCID50) was purchased from Microbiologics (Saint Cloud, MN). Viral replication was determined in NHBE cells in the following manner.
as §1
The test compounds were spotted to 384-well assay plates (Greiner, Monroe, NC, Cat #781091) at 200 nL per well using an Echo acoustic dispenser (Labcyte, Sunnyvale, CA). NHBE cells were harvested and suspended in BEGM Bronchial Epithelial Cell Growth Medium BulletKit and seeded to the pre-spotted assay plates at 5,000 cells per well in 30 μL. RSV-Luc5 virus was diluted in BEGM Bronchial Epithelial Cell Growth Medium BulletKit at 500,000 Infectious Units (IU) per mL and 10 μL per well was added to the assay plates containing cells and compounds, for an MOI of 1. The assay plates were incubated for 3 days at 37° C. and 5% CO2. At the end of incubation, One-Glo reagent (Promega, Madison, WI, Cat #E6120) was prepared. The assay plates and One-Glo reagent were equilibrated to room temperature for at least 15 minutes. 40 μL per well of One-Glo reagent was added and the plates were incubated at room temperature for 15 minutes before reading the luminescence signal on an EnVision multimode plate reader (Perkin Elmer, Waltham, MA). Remdesivir was used as positive control and DMSO was used as negative control. Values were normalized to the positive and negative controls (as 0% and 100% replication, respectively) and data was fitted using non-linear regression analysis by Gilead's dose response tool. The EC50 value for each compound was defined as the concentration reducing the viral replication by 50%.

Compound | EC50 [1] [µM] | EC50 [2] [µM] | EC50 [3] [µM] | EC50 [4] [µM] | EC50 [5] [µM]
CO[C@@H]1O[C@H]2[C@H](c3ccc4c(N)ncnn34)O[C@](C#N)(COC(=O)OCC(C)C)[C@H]2O1 (single isomer, unassigned) [Compound 25] | 50 | 50 | 50 | 50 | 50
CO[C@H]1O[C@H]2[C@H](c3ccc4c(N)ncnn34)O[C@](C#N)(COC(=O)OCC(C)C)[C@H]2O1 (single isomer, unassigned) [Compound 26] | 50 | 50 | 50 | 50 | 50
CC1(OC(=O)OC[C@@]2(C#N)O[C@@H](c3ccc4c(N)ncnn34)[C@H](O)[C@@H]2O)CC1 [Compound 3, ((2R,3S,4R,5S)-5-(4-aminopyrrolo[2,1-f][1,2,4]triazin-7-yl)-2-cyano-3,4-dihydroxytetrahydrofuran-2-yl)methyl (1-methylcyclopropyl) carbonate] | 20.9 | 34.5 | 24.4 | 16 | 7.93
N#C[C@]1(COC(=O)OC2CCCCCCC2)O[C@@H](c2ccc3c(N)ncnn23)[C@H](O)[C@@H]1O [Compound 18, ((2R,3S,4R,5S)-5-(4-aminopyrrolo[2,1-f][1,2,4]triazin-7-yl)-2-cyano-3,4-dihydroxytetrahydrofuran-2-yl)methyl cyclooctyl carbonate] |  |  |  |  | 5.77
CC(C)(OC(=O)OC[C@@]1(C#N)O[C@@H](c2ccc3c(N)ncnn23)[C@H](O)[C@@H]1O)C(F)F [Compound 27, ((2R,3S,4R,5S)-5-(4-aminopyrrolo[2,1-f][1,2,4]triazin-7-yl)-2-cyano-3,4-dihydroxytetrahydrofuran-2-yl)methyl (1,1-difluoro-2-methylpropan-2-yl) carbonate] |  |  |  |  | 8.03
CC(C)OC(=O)Nc1ncnn2c([C@@H]3O[C@](C#N)(COC(=O)OC(C)C)[C@@H](OC(=O)OC(C)C)[C@H]3OC(=O)OC(C)C)ccc12 [Compound 42, Isopropyl (7-((2S,3S,4S,5R)-5-cyano-3,4-bis((isopropoxycarbonyl)oxy)-5-(((isopropoxycarbonyl)oxy)methyl)tetrahydrofuran-2-yl)pyrrolo[2,1-f][1,2,4]triazin-4-yl)carbamate] |  |  |  |  | 26.1
CC(C)OC(=O)OC[C@@]1(C#N)O[C@@H](c2ccc3c(N)ncnn23)[C@H](OC(=O)OC(C)C)[C@@H]1OC(=O)OC(C)C [Compound 43, (2R,3S,4S,5S)-5-(4-aminopyrrolo[2,1-f][1,2,4]triazin-7-yl)-2-cyano-2-(((isopropoxycarbonyl)oxy)methyl)tetrahydrofuran-3,4-diyl diisopropyl bis(carbonate)] |  |  |  |  | 6.99
COC(=O)Nc1ncnn2c([C@@H]3O[C@](C#N)(COC(=O)OC)[C@@H](OC(=O)OC)[C@H]3OC(=O)OC)ccc12 [Compound 44, Methyl (7-((2S,3S,4S,5R)-5-cyano-3,4-bis((methoxycarbonyl)oxy)-5-(((methoxycarbonyl)oxy)methyl)tetrahydrofuran-2-yl)pyrrolo[2,1-f][1,2,4]triazin-4-yl)carbamate] |  |  |  |  | 15.8
COC(=O)OC[C@@]1(C#N)O[C@@H](c2ccc3c(N)ncnn23)[C@H](OC(=O)OC)[C@@H]1OC(=O)OC [Compound 45, (2R,3S,4S,5S)-5-(4-aminopyrrolo[2,1-f][1,2,4]triazin-7-yl)-2-cyano-2-(((methoxycarbonyl)oxy)methyl)tetrahydrofuran-3,4-diyl dimethyl bis(carbonate)] |  |  |  |  | 29.4
